Experimental data: publication PMC6553477 (Journal of pharmaceutical sciences, 2018)
Where “and” joins values, the source holds several entries; their conditions need not be identical. Identical values can stand only once. Like-named read-outs stand apart in the source and are kept apart here. Marks after values point to notes of the source that are not given here.

Legend:
[1] = Drug association efficiency to DcNP by equilibrium dialysis; assay type: physicochemical; conditions: ATV-RTV-TFV DcNP, DSPC-DSPE-mPEG2000 (9:1)
[2] = Mechanism-based pharmacokinetic; assay type: in vivo, Macaca nemestrina; conditions: MBPK model
[3] = in vivo, sc; for time concentrations were sustained in plasma: macaque (Macaca nemestrina)
[4] = in vivo
in vivo = conditions: Macaca nemestrina (macaque), sc, LNMC/plasma ratio 192 h
[5] = cited from earlier work; for LNMC concentration 24 h / LNMC concentration 192 h: in vivo, sc
[6] = PBMC intracellular drug concentrations after single subcutaneous injection; conditions: for AUC: monkey, sc, AUCPBMC, ATV-RTV-TFV DcNP, single subcutaneous dose, geometric mean (95% CI); for AUC / fold higher AUCPBMC, DcNP versus free drug: macaques; for fold higher AUCPBMC, DcNP versus free drug: ATV-RTV-TFV DcNP compared with free form
[7] = for MBRT / CL/F: ATV-RTV-TFV DcNP; for MBRT / half-life: plasma; for half-life: monkey, in vivo
[8] = for concentration at 192 h: concentration in LNMCs at 192 h after injection
HIV [9] = conditions: read-out: in vivo EC50; nonhuman primates; cited from earlier work
HIV [10] = conditions: read-out: in vitro effective concentration that produces 90% of the maximal effect (EC90); reported in vitro; cited from earlier work
HIV-1 protease = conditions: reported; cited from earlier work
[11] = in vivo, sc, cited from earlier work
[12] = monkey, in vivo, sc; cited from earlier work
[13] = macaque (Macaca nemestrina), sc
[14] = single subcutaneous dose, macaques, geometric mean (95% CI)
[15] = sc, Terminal t1/2, ATV-RTV-TFV DcNP, single subcutaneous dose, macaques, geometric mean (95% CI)
[16] = ATV-RTV-TFV DcNP, subcutaneous, macaques, 24 h
[17] = TLC-ART 101, subcutaneous, macaques, 24 h
[18] = TLC-ART 101, subcutaneous, macaques, 192 h
[19] = ATV-RTV-TFV DcNP compared with free form, macaques
[20] = ATV-RTV-TFV DcNP versus TLC-ART 101
[21] = ATV-RTV-TFV DcNP compared with free form, macaques, 24 h

Row | SMILES | % Association to DcNP [1] | K07, rate of elimination ([2]; Atazanavir-DcNP) | V5_DcNP, central compartmental apparent volume for DcNP ([2]; Atazanavir-DcNP) | V7_Free, central compartmental apparent volume for free drug ([2]; Atazanavir-DcNP) | k21, rate of DcNP absorption into the first delayed compartment ([2]; Atazanavir-DcNP) | k31, rate of DcNP absorption into the second delayed compartment ([2]; Atazanavir-DcNP) | k41, rate of DcNP absorption into the third delayed compartment ([2]; Atazanavir-DcNP) | k75, rate of degradation of DcNP into free drug between central compartments ([2]; Atazanavir-DcNP) | tlag1, delayed constant of delayed compartment 1 ([2]; Atazanavir-DcNP) | tlag2, delayed constant of delayed compartment 2 ([2]; Atazanavir-DcNP) | tlag3, delayed constant of delayed compartment 3 ([2]; Atazanavir-DcNP) | time concentrations were sustained in plasma [3] | time drug concentration in PBMCs was sustained [4, 13] | LNMC concentration 24 h [5] | LNMC concentration 192 h [5] | AUC ([6]; PBMC (intracellular)) [µM·h] | MBRT [7, 14] | CL/F [7, 14] | half-life [7, 15] [days] | LNMC concentration 24 h [8, 16] | further results
1 | CC(C)c1nc(CN(C)C(=O)N[C@H](C(=O)N[C@@H](Cc2ccccc2)C[C@H](O)[C@H](Cc2ccccc2)NC(=O)OCc2cncs2)C(C)C)cs1 [RTV, ritonavir] | 92 ± 7.1% and 92 ± 7% | 0.08 (0.03-0.12) 1/h | 67 (22-94) L/kg | 79 (56-122) L/kg | 0.40 (0.35-0.46) 1/h | 0.05 (-) 1/h | 0.5 (-) 1/h | 0.19 (0.06-0.26) 1/h | 0.3 (-) h | 41 (35-46) h | 186 (169-199) h | up to 14 days | up to 336 h | 6.3^a (4.4-8.5) μM | 1.00 (0.06-2.00) μM | 85 | 110 (46-266) h | 4 L/[h·kg] | 3.04 | 0.40^a (0.06-3.00) μM | last PBMC concentration timepoint detected ([4]; macaque (Macaca nemestrina)): 48 h; Kp at 192 h (in vivo): 23; AUC ([6]; PBMC, PBMC intracellular): 79 µM·h; LNMC concentration ([8]; RTV in ATV-RTV-TFV DcNP, macaques, unit as printed in text (Table 4: 24 h)): 0.4 mM
2 | C[C@H](Cn1cnc2c(N)ncnc21)OCP(=O)(O)O [TFV, 9-(2-Phosphonyl-methoxypropyly)adenine] | 10 ± 0.8% and 10 ± 1% | 0.4 (0.08-2) 1/h | 0.7 (0.5-0.9) L/kg | 1.1 (0.8-1.3) L/kg | 0.05 (-) 1/h | 0.1 (-) 1/h | 0.15 (-) 1/h | 0.026 (0.009-0.03) 1/h | 1 h | 23 (-) h | 106 (76-132) h | up to 14 days | up to 192 h | 25 (14-47) μM | 19 (3.6-280) μM | – | 128 (65-254) h | 0.004 (0.002-0.015) L/[h·kg] | 2.75 | – | k76, rate of absorption of free drug ([2]; Atazanavir-DcNP): 1.7 (0.6-2.5) 1/h; k78, rate from periphery to central free compartment ([2]; Atazanavir-DcNP): 0.06 (-) 1/h; k87, rate from central free compartment to periphery ([2]; Atazanavir-DcNP): 0.02 (-) 1/h; AUC (plasma, extrapolated to infinity) ([3]; monkey): 3057 (1029-9078) h·μM; AUCPBMC ([4]; monkey, sc): 1134 (588-1554) h·μM; EC50 (HIV [9]): 49 nM; LNMC/PBMC ratio 24 h [5, 17]: 0.93 (0.39-2.3); LNMC/plasma ratio 24 h [5, 17]: 3 (1.5-5.3); LNMC/PBMC ratio 192 h [5, 18]: 4.4 (0.45-340.0); LNMC/plasma ratio 192 h [5, 18]: 6.8 (1.4-75); fold higher AUCPBMC, DcNP versus free drug [6]: 5 fold; fold higher plasma AUC, DcNP versus free drug [7, 19]: 35 fold; fold longer MBRT, DcNP versus free drug [7, 19]: 41 fold; fold longer apparent t1/2, DcNP versus free drug [7, 19]: 7 fold; fold lower CL/F, DcNP versus free drug [7, 19]: 23 fold; LNMC/PBMC ratio 24 h ([8]; free drug combination, subcutaneous, macaques, 24 h): 1.8^d; concentration at 192 h ([8]; macaque (Macaca nemestrina), in vivo, sc, ATV-RTV-TFV DcNP, subcutaneous, primates, 192 h): 130 nM
3 | COC(=O)N[C@H](C(=O)N[C@@H](Cc1ccccc1)[C@@H](O)CN(Cc1ccc(-c2ccccn2)cc1)NC(=O)[C@@H](NC(=O)OC)C(C)(C)C)C(C)(C)C [ATV, atazanavir] | 99 ± 8.2% and 99 ± 8% | 0.29 (-) 1/h | 1259^a (569-1680) L/kg | 113 (97-133) L/kg | 0.15 (0.1-0.3) 1/h | 0.05 (-) 1/h | 0.7 (-) 1/h | 0.04^a (0.01-0.06) 1/h | 0.25 (-) h | 16 (9-25) h | 440 (336-520) h | up to 14 days | up to 336 h | – | – | 435 | 650 (370-1230) h | 11^a (8-13) L/[h·kg] | 19.5 | 0.10 (0.04-0.24) μM | fold higher V5_DcNP for ATV than LPV [2, 20]: 180 fold; fold lower k75 for ATV than LPV [2, 20]: 18 fold; EC90 (HIV [10]): 13 nM; fold higher antiretroviral activity compared with several other commercialized protease inhibitors (HIV-1 protease): 2- to 20 fold; fold higher AUCPBMC, DcNP versus free drug [6]: 33 fold; fold higher PBMC exposure (AUCPBMC) of ATV than LPV ([6]; ATV-RTV-TFV DcNP versus TLC-ART 101, macaques): 5.5 fold; fold higher plasma AUC, DcNP versus free drug [7, 19]: 5 fold; fold longer MBRT, DcNP versus free drug [7, 19]: 116 fold; fold lower CL/F, DcNP versus free drug [7, 19]: 4 fold; fold higher CL/F, free ATV compared with free LPV ([7]; free drugs, macaques): 9 fold; fold lower AUC, free ATV compared with free LPV ([7]; free drugs, macaques): 8 fold; half-life ([7]; terminal half-life, DcNP ATV, macaques (Table 2)): ~20 days; fold higher intracellular LNMC concentration at 24 h, DcNP versus free drug [8, 21]: 3 fold; fold lower LNMC-to-plasma ratio at 24 h, DcNP versus free drug [8, 21]: 4 fold; fold higher intracellular LNMC concentration at 192 h, DcNP versus free drug ([8]; ATV-RTV-TFV DcNP compared with free form, macaques, 192 h): 3 fold; intracellular LNMC concentration at 192 h ([8]; ATV-RTV-TFV DcNP, macaques, 192 h): 0.09 mμM; LNMC/PBMC ratio 192 h ([8]; ATV-RTV-TFV DcNP, subcutaneous, macaques, 192 h, n=2): 2.4^b; intracellular LNMC concentration at 192 h ([8]; free drug, macaques, 192 h): 0.03 mμM; concentration at 24 h ([8]; macaque (Macaca nemestrina), lymph node mononuclear cells (LNMC), sc, concentration in LNMCs at 24 h after injection, ATV-RTV-TFV DcNP, subcutaneous, primates, 24 h): 100 nM; concentration at 192 h ([8]; macaque (Macaca nemestrina), lymph node mononuclear cells (LNMC), sc, ATV-RTV-TFV DcNP, subcutaneous, primates, 192 h): 90 nM
4 | Cc1cccc(C)c1OCC(=O)N[C@@H](Cc1ccccc1)[C@@H](O)C[C@H](Cc1ccccc1)NC(=O)[C@H](C(C)C)N1CCCNC1=O [LPV, lopinavir] | – | – | – | – | – | – | – | – | – | – | – | – | – | – | – | – | – | – | – | – | AUC (plasma, extrapolated to infinity) [11]: 4.8 (4.2-4.6)^c h·μM; CL/F ([11]; monkey): 5 L/[h·kg]; Terminal t1/2 ([11]; monkey): 8.7 (5.3-10.4)^c h; AUCPBMC [12]: 22 (10-33)^c h·μM
